Test system: LG0703-F948-PDC complex spheroid viability
Experiment: Anticancer human tumor LG0703-F948-PDC patient-derived lung adenocarcinoma cell line growth inhibition
Details: for IC50: curve of first compound; for viability, T/C: stronger effect = lower value; active = viability on the fitted dose curve at most 10% of control; inactive = the rest
Excerpt: Multicellular complex tumor spheroid response to LSD1 Inhibitor Iadademstat in combination with a variety of drugs and investigational agents in selected tumor cell lines
The current study was undertaken to assess response to LSD1 inhibitors in combination with standard-of-care drugs and investigational agents in solid tumor complex spheroid models as well as in the K-562 leukemia. Complex spheroids include a stromal component modeled by human endothelial cells (HUVEC) and fibroblasts modeled by human mesenchymal stem cells (MSCs). The concentration ranges selected for each drug and investigational agent were based upon clinically achievable concentrations if the clinical Cmax of the agent was known.
Compounds. The drugs and investigational agents used in this study are listed on Table 1. All of the agents used, including staurosporine (NSC755774) and gemcitabine (NSC613327), were obtained from the Developmental Therapeutics Program, NCI. FDA-approved anticancer drugs are available from the NCI at http://dtp.nci.nih.gov/branches/dscb/oncology_drugset_explanation.html. Drugs and investigational agents were >95% pure by proton nuclear magnetic resonance (NMR) and liquid chromatography/mass spectrometry (LC/MS). Stock solutions were prepared at 400x in DMSO, stored at -70 degrees C, and diluted in fresh medium prior to their use. The final concentration of DMSO in cell culture wells never exceeded 0.25% (v/v). The FDA-approved anticancer drug set is available from the Developmental Therapeutics Program at https://dtp.cancer.gov/organization/dscb/obtaining/available_plates.htm. All drugs and investigational agents were tested over a range starting from a high concentration at or near the clinical Cmax and decreasing in half-log increments. If the clinical Cmax for an agent had not been determined, the highest concentration tested was 10 microM.
Cell Lines. The patient-derived cancer cell (PDC) lines: 292921-168-R-J2-PDC, K24384-001-R-PDC, and 521955-158-R2-J5-PDC pancreatic carcinomas, 556581-035-R-J1 ovarian carcinoma, 324938-238-R-J1-PDC, 855422-203-R-J1-PDC and 883617-216-R-J1-PDC urothelial bladder carcinomas, 743489-274-T-PDC renal cell carcinoma, 138582-R-J1 Merkel cell tumor, K60290-347-R-J1 and K57222-313-R-J1-PDC glioblastomas, 653999-131-R-J2-PDC, LG0703-F948-PDC, and 349418-098-R-PDC non-small cell lung carcinomas, 885512-296-R-J2-PDC, 171881-019-R-J1-PDC breast carcinomas and 186277-243-T-J2-PDC and 233499-124-R-J2-PDC colon carcinomas were obtained from the NCI Patient-Derived Models Repository (PDMR, https://pdmr.cancer.gov). The established cell lines NCI/ADR-RES (RRID:CVCL_14520 and OVCAR-5 (RRID:CVCL_1628) ovarian carcinomas, 786-O (RRID:CVCL_1051) and A498 (RRID:CVCL_A498) renal cell carcinoma, NCI-H211 (ATCC, cat. CRL-5824; RRID:CVCL_1529), NCI-H196 (ATCC, cat. CRL-5823, RRID:CVCL_1509), SW 1271 (ATCC, cat. CRL-2177, RRID:CVCL_1716) and NCI-H1876 (ATCC, cat. CRL-5902, RRID:CVCL_1503) small cell lung carcinomas, MDA-MB-231 (RRID:CVCL_0062) and MDA-MB-468 (RRID:CVCL_0419)breast carcinomas (10-12). Pooled donor human umbilical vein endothelial cells (HUVEC, Lonza, cat. CC-2519) and human mesenchymal stem cells (hMSC, Lonza, cat. PT-2501) were purchased from Lonza (Walkersville, MD).
Cell Culture. All cells were maintained in an incubator at 37 degrees C and 5% CO2 with 95% humidity. The PDC lines were cultured according to standard operating procedures established by the NCI PDMR (https://pdmr.cancer.gov). Briefly all PDCs were thawed and cultured in Matrigel-coated flasks prepared with a working solution of 1X Ham's F-12 nutrient mix, without supplementation (Invitrogen, Waltham, MA, cat. 11765054), 100 U/mL penicillin-streptomycin (Invitrogen, cat. 15140122), and 2.5% Matrigel (Corning Inc., Corning, NY, cat. 354248) for the first three passages. […]
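Note: spheroids exposed to agents for seven days before readout.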
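Throughout, for viability, T/C: 100% = DMSO vehicle control wells as normalization base.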

CCc1c2c(nc3ccc(O)cc13)-c1cc3c(c(=O)n1C2)COC(=O)[C@]3(O)CC + NC1CCC(NC2CC2c2ccccc2)CC1
1.31 nM: IC50 (second compound 0.1 µM)
inactive: viability, T/C (second compound 0.1 µM, first compound 0.000949 µM) 55.8% | viability, T/C (second compound 0.1 µM, first compound 0.003 µM) 36.4% | viability, T/C (second compound 0.1 µM, first compound 0.00949 µM) 23.9% | viability, T/C (second compound 0.1 µM, first compound 0.03 µM) 15% | viability, T/C (second compound 0.316 µM, first compound 0.000949 µM) 63.7% | viability, T/C (second compound 0.316 µM, first compound 0.003 µM) 40.2% | viability, T/C (second compound 0.316 µM, first compound 0.00949 µM) 24.8% | viability, T/C (second compound 0.316 µM, first compound 0.03 µM) 15.1% | viability, T/C (second compound 1 µM, first compound 0.000949 µM) 62.8% | viability, T/C (second compound 1 µM, first compound 0.003 µM) 40.8% | viability, T/C (second compound 1 µM, first compound 0.00949 µM) 27.6% | viability, T/C (second compound 1 µM, first compound 0.03 µM) 15.9% | viability, T/C (second compound 3.16 µM, first compound 0.000949 µM) 64.8% | viability, T/C (second compound 3.16 µM, first compound 0.003 µM) 52.5% | viability, T/C (second compound 3.16 µM, first compound 0.00949 µM) 35.3% | viability, T/C (second compound 3.16 µM, first compound 0.03 µM) 18.1% | viability, T/C (second compound 10 µM, first compound 0.000949 µM) 78.8% | viability, T/C (second compound 10 µM, first compound 0.003 µM) 59% | viability, T/C (second compound 10 µM, first compound 0.00949 µM) 39.6% | viability, T/C (second compound 10 µM, first compound 0.03 µM) 19.9%
1.89 nM: IC50 (second compound 1 µM)
active: viability, T/C (second compound 0.1 µM, first compound 0.0949 µM) 8.81% | viability, T/C (second compound 0.1 µM, first compound 0.3 µM) 4.02% | viability, T/C (second compound 0.316 µM, first compound 0.0949 µM) 7.91% | viability, T/C (second compound 0.316 µM, first compound 0.3 µM) 3.79% | viability, T/C (second compound 1 µM, first compound 0.0949 µM) 7.93% | viability, T/C (second compound 1 µM, first compound 0.3 µM) 3.95% | viability, T/C (second compound 3.16 µM, first compound 0.0949 µM) 7.91% | viability, T/C (second compound 3.16 µM, first compound 0.3 µM) 4.52% | viability, T/C (second compound 10 µM, first compound 0.0949 µM) 8.18% | viability, T/C (second compound 10 µM, first compound 0.3 µM) 3.7%
3.61 nM: IC50 (second compound 3.16 µM)
1.87 nM: IC50 (second compound 0.316 µM)
5.11 nM: IC50 (second compound 10 µM)

CC(C)c1c(-c2ccccc2)nc2c(C#N)c[nH]n2c1=O + NC1CCC(NC2CC2c2ccccc2)CC1
> 10000 nM: IC50 (second compound 0.1 µM) | IC50 (second compound 0.316 µM) | IC50 (second compound 1 µM) | IC50 (second compound 3.16 µM) | IC50 (second compound 10 µM)
inactive: viability, T/C (second compound 0.1 µM, first compound 0.0316 µM) 101% | viability, T/C (second compound 0.1 µM, first compound 0.1 µM) 95.8% | viability, T/C (second compound 0.1 µM, first compound 0.316 µM) 85.5% | viability, T/C (second compound 0.1 µM, first compound 1 µM) 90.1% | viability, T/C (second compound 0.1 µM, first compound 3.16 µM) 102% | viability, T/C (second compound 0.1 µM, first compound 10 µM) 78.3% | viability, T/C (second compound 0.316 µM, first compound 0.0316 µM) 98.1% | viability, T/C (second compound 0.316 µM, first compound 0.1 µM) 104% | viability, T/C (second compound 0.316 µM, first compound 0.316 µM) 97.4% | viability, T/C (second compound 0.316 µM, first compound 1 µM) 95% | viability, T/C (second compound 0.316 µM, first compound 3.16 µM) 101% | viability, T/C (second compound 0.316 µM, first compound 10 µM) 85.9% | viability, T/C (second compound 1 µM, first compound 0.0316 µM) 110% | viability, T/C (second compound 1 µM, first compound 0.1 µM) 102% | viability, T/C (second compound 1 µM, first compound 0.316 µM) 106% | viability, T/C (second compound 1 µM, first compound 1 µM) 83% | viability, T/C (second compound 1 µM, first compound 3.16 µM) 98.4% | viability, T/C (second compound 1 µM, first compound 10 µM) 89.1% | viability, T/C (second compound 3.16 µM, first compound 0.0316 µM) 106% | viability, T/C (second compound 3.16 µM, first compound 0.1 µM) 108% | viability, T/C (second compound 3.16 µM, first compound 0.316 µM) 108% | viability, T/C (second compound 3.16 µM, first compound 1 µM) 105% | viability, T/C (second compound 3.16 µM, first compound 3.16 µM) 107% | viability, T/C (second compound 3.16 µM, first compound 10 µM) 94.1% | viability, T/C (second compound 10 µM, first compound 0.0316 µM) 110% | viability, T/C (second compound 10 µM, first compound 0.1 µM) 119% | viability, T/C (second compound 10 µM, first compound 0.316 µM) 113% | viability, T/C (second compound 10 µM, first compound 1 µM) 105% | viability, T/C (second compound 10 µM, first compound 3.16 µM) 100% | viability, T/C (second compound 10 µM, first compound 10 µM) 85.8%

Source: PubChem BioAssay AID1918952 (Molecular Pharmacology Branch, DTP, NCI, 2023)
